≈ marks a conversion by molar mass, not a printed value. Entries after “also recorded” stand apart in the source; their conditions may differ. Like-named read-outs stand apart in the source and are kept apart here.

In data set [1] the target is Acetylcholinesterase (AChE) from Electrophorus electricus (electrical eels) type VI-S (Electrophorus electricus, UniProt O42275). The data set is described as follows: biochemical. Type of data set: biochemical. As to conditions: for inhibition at 100 µg/mL: read-out: AChE inhibition (%). The method, then: Coloring agent 5-5′dithiobis [2-nitrobenzoicacid] (DTNB) was purchased from ACROS (Geel, Belgium). Silica gel (Kieselgel 60, 230–400 mesh atm) was purchased from Merck (Darmstadt, Germany). The solvents were of analytical grade and used as received.
The in vitro AChE inhibition assay was evaluated using a spectrophotometry method developed by Ellman with some modifications. […] Plant extracts were dissolved in dimethyl sulfoxide (DMSO) and tested at a final concentration of 0.2 mg/mL, while compounds were tested at 0.1 mg/mL. The final concentration of DMSO was fixed at 1% in the 96-well plate. In a 96-well plate, 178 µL of 50 mM phosphate buffer, 2 µL of […] compound and 20 mg/mL extract, and 10 µL of 0.5 U/mL AChE were added. The first incubation period was 15 min at 25 °C. Five microliters of 14 mM ATCI substrate and 10 mM of the color indicator, DTNB, were added equally into each well and the well was then incubated at 25 °C for 30 min to initiate the enzyme reaction. The absorbance was measured at 415 nm using Promega Glomax® Multi Plus Reader (Promega, Madison, WI, USA). […] The percentage of inhibition was calculated using formula (1):(1) Percentage Inhibition (%) = Absorbance of negative control − Absorbance of test sample/ Absorbance of negative control × 100
IC50 values of plant crude extract, fractions, and compounds were calculated from the graph of percentage of inhibition versus extract concentrations using Microsoft Excel. GraphPad Prism software was used to generate the graphs.

In the next data set the test system is AChE. As to conditions: individual compounds; cited from earlier work.
For data set [2] the following is noted: cited from earlier work.
Setting [3] is: isolated compounds at 0.1 mg/mL.

Chain of Acetylcholinesterase (AChE) from Electrophorus electricus (electrical eels) type VI-S (O42275 24-633): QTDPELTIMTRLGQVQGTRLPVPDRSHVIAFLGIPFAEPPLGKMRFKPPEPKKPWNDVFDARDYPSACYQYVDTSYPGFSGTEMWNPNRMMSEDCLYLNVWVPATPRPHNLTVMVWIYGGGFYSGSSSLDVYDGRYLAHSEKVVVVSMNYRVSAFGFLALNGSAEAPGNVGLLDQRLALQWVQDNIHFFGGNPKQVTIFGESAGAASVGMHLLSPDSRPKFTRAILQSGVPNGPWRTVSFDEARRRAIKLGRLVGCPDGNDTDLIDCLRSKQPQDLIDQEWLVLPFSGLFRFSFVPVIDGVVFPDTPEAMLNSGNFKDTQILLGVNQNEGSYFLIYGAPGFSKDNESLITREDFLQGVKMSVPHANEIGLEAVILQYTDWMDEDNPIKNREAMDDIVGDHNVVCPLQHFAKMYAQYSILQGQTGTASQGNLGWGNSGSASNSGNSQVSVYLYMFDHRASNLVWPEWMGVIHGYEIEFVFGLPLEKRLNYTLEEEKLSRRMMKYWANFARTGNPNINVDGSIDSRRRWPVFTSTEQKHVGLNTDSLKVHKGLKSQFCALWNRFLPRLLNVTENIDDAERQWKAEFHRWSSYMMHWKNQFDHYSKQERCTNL

With `COc1c(-c2ccc(O)c(O)c2)oc2cc(O)cc(O)c2c1=O` [Compound 1, 3-methoxyquercetin], in data set [1], the “AChE activity relative to quercetin” value is recorded as “approximately three times higher than quercetin”. Besides, in data set [1] (setting [3]), the “AChE inhibitory activity (in words)” value is “moderate inhibition”. The IC50 in data set [1] (mean ± s.d. (n = 3), read-out: AChE Inhibition (IC50)) turned out to be 83.7 ± 4.67 µM. Take `CCC=CCC=CCC=CCCCCCCCC(=O)O` [Compound 3, 9,12,15-octadecatrienoic acid]: in data set [1], the “AChE inhibitory activity (in words)” value is reported as “weak inhibitory activity; also recorded: not active” and the inhibition at 100 µg/mL is below 50%.

As to `CC[C@H](CC[C@@H](C)[C@H]1CC[C@H]2[C@@H]3CC=C4C[C@@H](O)CC[C@]4(C)[C@H]3CC[C@]12C)C(C)C` [Compound 4, β-sitosterol], the inhibition at 100 µg/mL in data set [1] is below 50%. Besides, the “IC50 against AChE” value in the data set with AChE is on record as 55 µg/mL (≈ 133 µM).

Consider `CC[C@H](/C=C/[C@@H](C)[C@H]1CC[C@H]2[C@@H]3CC=C4C[C@@H](O)CC[C@]4(C)[C@H]3CC[C@]12C)C(C)C` [Compound 5, stigmasterol], for which the inhibition at 100 µg/mL in data set [1] is below 50%. For the same compound, the “IC50 against AChE” value in the data set on AChE is 63 µg/mL (≈ 153 µM). In the case of `CCCCCCCCCCCCCCCCCCO` [Compound 6, 1-octadecanol], the “AChE inhibitory activity (in words)” value in data set [1] (setting [3]) was “weak inhibitory activity; also recorded: not active”. For the same compound, in data set [1], the inhibition at 100 µg/mL is below 50%.

In the case of `COc1ccc(-c2cc(=O)c3c(O)c(OC)c(O)c(OC)c3o2)cc1` [nevadensin], the BBB permeability entry in data set [2] is reported as “high BBB permeability”. Take `COc1cc(-c2cc(=O)c3c(O)c(OC)c(O)c(OC)c3o2)ccc1O` [sudachitin]: the BBB permeability entry in data set [2] was “high BBB permeability”. On to aceronin, for which the BBB permeability entry in data set [2] is recorded as “high BBB permeability”.

The IC50 is the concentration needed to halve the response being measured. As a reminder, the inhibition is the percentage by which the read-out fell short of the control.

The values above are taken from publication PMC7582324, “Potential Anti-Acetylcholinesterase Activity of Cassia timorensis DC” (Molecules, 2020).
